The values that follow are results of earlier work, collected in patent US10335411B2, “Administration of ubiquitin-activating enzyme inhibitor and radiation” (Millennium Pharmaceuticals, Inc., priority 2014, dated 2019).

Molecules are shown by their SMILES.

Data set [1] deals with leukemia and myeloma cell lines. Conditions: Xu et al., 2010; cited from earlier work.
The test system of data set [2] is mouse acute myeloid leukemia (AML model). The settings on record: Xu et al., 2010; cited from earlier work.

Regarding `O=C1NN(c2ccc(F)c(Cl)c2)C(=O)/C1=C\c1ccc([N+](=O)[O-])o1` [PYZD-4409], in data set [1], the cell death result is reported as “induced cell death”. In addition, the anti-tumor activity entry in data set [2] is given as “induced anti-tumor activity”.
